Measurements taken from patent US10183022B2, “Pharmaceutical composition for treating ulcerative colitis” (EA Pharma Co., Ltd., priority 2014, dated 2019).
“And” between values parts separate entries of the source, which are not always exact repeats. Identical values can stand only once.

What was measured:
Assay type in all cases: in vivo, human
[1] = test system: ulcerative colitis patients in an active stage; experiment: Clinical study, 960 mg orally 3 times a day for 8 weeks: subscore for stool frequency of Mayo score; parameters: Cases by subscore for stool frequency, figure in parentheses: unit not given here
Procedure: (§1) The compound of Example 1 or the compound of Comparative Example 1 was orally administered after meals 3 times a day. The number of the given tablets was 8 per administration (i.e., the amount of the compound (1) of Example 1 administered was 960 mg per administration). The administration period was 8 weeks. The compounds were administered until the timing after the breakfast on the day before the assessment day at Week 8.
[Investigation Timings: Weeks 0, 2, 4, and 8 (or Discontinuation Time)]
Based on the contents described in the symptom-recording diaries and so on, the investigators or sub-investigators investigated stool frequencies in 3 days immediately before each assessment day. Note that when the endoscopic examination on the large intestine was conducted, the investigation days were set to be the closest three days excluding the day of the endoscopic examination on the large intestine, the following day, and if a pre-treatment was performed for the endoscopic examination on the large intestine, the pre-treatment day.
The investigators or sub-investigators investigated the stool frequency per day before the primary disease appeared, which served as a “normal frequency.” An average value (rounded to the nearest whole number) of the stool frequencies of the investigated three days was compared with the “normal frequency,” and scored according to the following criteria.

[2] = test system: ulcerative colitis patients in an active stage; experiment: Clinical study, 960 mg orally 3 times a day for 8 weeks: Riley score (histopathological assessment of large intestinal mucosal biopsy)
Procedure: as §1
At the time of the endoscopic examination on the large intestine for the mucosal finding assessment, large intestinal mucosal tissues were sampled (biopsy). The biopsy for the histopathological assessment at Week 0 was conducted during the endoscopic examination on the large intestine for the eligibility determination. […] The sampled tissues were fixed with formalin to prepare histopathological specimens.
The histopathological assessment was scored by a histopathological assessment central adjudication committee according to the following criteria. A Riley score is a total score of the following items.

[3] = test system: ulcerative colitis patients in an active stage; experiment: Clinical study, 960 mg orally 3 times a day for 8 weeks: adverse events
Procedure: as §1

For `COC(=O)[C@H](Cc1ccc(-n2c(=O)c3cc(N(C)C)ccc3n(C)c2=O)cc1)NC(=O)c1c(Cl)cccc1Cl` [Example 1, methyl(2S)-2-(2,6-dichlorobenzamide)-3-{4-[6-(dimethylamino)-1-methyl-2,4-dioxo-1,4-dihydroquinazolin-3(2H)-yl]phenyl}propanoate], the “Cases by subscore for stool frequency, figure in parentheses” value (“Cases by subscore … in parentheses” below) ([1]; Week 0, score 0) was 3.9, the “Number of cases by subscore for stool frequency” value (shortened to “Number of cases by subscore”) ([1]; Week 0, score 0) was 2 and the “Cases by subscore … in parentheses” value ([1]; Week 0, score 1) was 17.6. The “Number of cases by subscore” value ([1]; Week 0, score 1) was 9, the “Cases by subscore … in parentheses” value ([1]; Week 0, score 2) was 41.2 and the “Number of cases by subscore” value ([1]; Week 0, score 2) was 21. The “Cases by subscore … in parentheses” value ([1]; Week 0, score 3) was 37.3, the “Number of cases by subscore” value ([1]; Week 0, score 3) was 19 and the “Cases by subscore … in parentheses” value ([1]; Week 2, score 0) was 9.8. The “Number of cases by subscore” value ([1]; Week 2, score 0) was 5, the “Cases by subscore … in parentheses” value ([1]; Week 2, score 1) was 25.5 and the “Number of cases by subscore” value ([1]; Week 2, score 1) was 13. The “Cases by subscore … in parentheses” value ([1]; Week 2, score 2) was 49.0, the “Number of cases by subscore” value ([1]; Week 2, score 2) was 25 and the “Cases by subscore … in parentheses” value ([1]; Week 2, score 3) was 15.7. The “Number of cases by subscore” value ([1]; Week 2, score 3) was 8, the “Number of cases, cross tabulation of subscore for stool frequency” value (“Number … of subscore for stool frequency” below) ([1]; Week 2 score 0, Week 0 score 0) was 2 and the “Number … of subscore for stool frequency” value ([1]; Week 2 score 0, Week 0 score 1) was 1. The “Number … of subscore for stool frequency” value ([1]; Week 2 score 0, Week 0 score 2) was 1, the “Number … of subscore for stool frequency” value ([1]; Week 2 score 0, Week 0 score 3) was 1 and the “Number … of subscore for stool frequency” value ([1]; Week 2 score 1, Week 0 score 0) was 0. The “Number … of subscore for stool frequency” value ([1]; Week 2 score 1, Week 0 score 1) was 6, the “Number … of subscore for stool frequency” value ([1]; Week 2 score 1, Week 0 score 2) was 5 and the “Number … of subscore for stool frequency” value ([1]; Week 2 score 1, Week 0 score 3) was 2. The “Number … of subscore for stool frequency” value ([1]; Week 2 score 2, Week 0 score 0) was 0, the “Number … of subscore for stool frequency” value ([1]; Week 2 score 2, Week 0 score 1) was 2 and the “Number … of subscore for stool frequency” value ([1]; Week 2 score 2, Week 0 score 2) was 15. For the same compound, the “Number … of subscore for stool frequency” value ([1]; Week 2 score 2, Week 0 score 3) was 8, the “Number … of subscore for stool frequency” value ([1]; Week 2 score 3, Week 0 score 0) was 0 and the “Number … of subscore for stool frequency” value ([1]; Week 2 score 3, Week 0 score 1) was 0. The “Number … of subscore for stool frequency” value ([1]; Week 2 score 3, Week 0 score 2) was 0, the “Number … of subscore for stool frequency” value ([1]; Week 2 score 3, Week 0 score 3) was 8 and the “Cases by subscore … in parentheses” value ([1]; Week 4, score 0) was 11.8. For the same compound, the “Number of cases by subscore” value ([1]; Week 4, score 0) was 6, the “Cases by subscore … in parentheses” value ([1]; Week 4, score 1) was 47.1 and the “Number of cases by subscore” value ([1]; Week 4, score 1) was 24. For the same compound, the “Cases by subscore … in parentheses” value ([1]; Week 4, score 2) was 25.5, the “Number of cases by subscore” value ([1]; Week 4, score 2) was 13 and the “Cases by subscore … in parentheses” value ([1]; Week 4, score 3) was 15.7. For the same compound, the “Number of cases by subscore” value ([1]; Week 4, score 3) was 8, the “Number … of subscore for stool frequency” value ([1]; Week 4 score 0, Week 0 score 0) was 2 and the “Number … of subscore for stool frequency” value ([1]; Week 4 score 0, Week 0 score 1) was 1. For the same compound, the “Number … of subscore for stool frequency” value ([1]; Week 4 score 0, Week 0 score 2) was 3, the “Number … of subscore for stool frequency” value ([1]; Week 4 score 0, Week 0 score 3) was 0 and the “Number … of subscore for stool frequency” value ([1]; Week 4 score 1, Week 0 score 0) was 0. The “Number … of subscore for stool frequency” value ([1]; Week 4 score 1, Week 0 score 1) was 7, the “Number … of subscore for stool frequency” value ([1]; Week 4 score 1, Week 0 score 2) was 12 and the “Number … of subscore for stool frequency” value ([1]; Week 4 score 1, Week 0 score 3) was 5. For the same compound, the “Number … of subscore for stool frequency” value ([1]; Week 4 score 2, Week 0 score 0) was 0, the “Number … of subscore for stool frequency” value ([1]; Week 4 score 2, Week 0 score 1) was 1 and the “Number … of subscore for stool frequency” value ([1]; Week 4 score 2, Week 0 score 2) was 6. The “Number … of subscore for stool frequency” value ([1]; Week 4 score 2, Week 0 score 3) was 6, the “Number … of subscore for stool frequency” value ([1]; Week 4 score 3, Week 0 score 0) was 0 and the “Number … of subscore for stool frequency” value ([1]; Week 4 score 3, Week 0 score 1) was 0. The “Number … of subscore for stool frequency” value ([1]; Week 4 score 3, Week 0 score 2) was 0, the “Number … of subscore for stool frequency” value ([1]; Week 4 score 3, Week 0 score 3) was 8 and the “Cases by subscore … in parentheses” value ([1]; Week 8, score 0) was 21.6. For the same compound, the “Number of cases by subscore” value ([1]; Week 8, score 0) was 11, the “Cases by subscore … in parentheses” value ([1]; Week 8, score 1) was 45.1 and the “Number of cases by subscore” value ([1]; Week 8, score 1) was 23. The “Cases by subscore … in parentheses” value ([1]; Week 8, score 2) was 17.6, the “Number of cases by subscore” value ([1]; Week 8, score 2) was 9 and the “Cases by subscore … in parentheses” value ([1]; Week 8, score 3) was 15.7. The “Number of cases by subscore” value ([1]; Week 8, score 3) was 8, the “Number … of subscore for stool frequency” value ([1]; Week 8 score 0, Week 0 score 0) was 2 and the “Number … of subscore for stool frequency” value ([1]; Week 8 score 0, Week 0 score 1) was 3. For the same compound, the “Number … of subscore for stool frequency” value ([1]; Week 8 score 0, Week 0 score 2) was 4, the “Number … of subscore for stool frequency” value ([1]; Week 8 score 0, Week 0 score 3) was 2 and the “Number … of subscore for stool frequency” value ([1]; Week 8 score 1, Week 0 score 0) was 0. For the same compound, the “Number … of subscore for stool frequency” value ([1]; Week 8 score 1, Week 0 score 1) was 5, the “Number … of subscore for stool frequency” value ([1]; Week 8 score 1, Week 0 score 2) was 11 and the “Number … of subscore for stool frequency” value ([1]; Week 8 score 1, Week 0 score 3) was 7. For the same compound, the “Number … of subscore for stool frequency” value ([1]; Week 8 score 2, Week 0 score 0) was 0, the “Number … of subscore for stool frequency” value ([1]; Week 8 score 2, Week 0 score 1) was 1 and the “Number … of subscore for stool frequency” value ([1]; Week 8 score 2, Week 0 score 2) was 5. For the same compound, the “Number … of subscore for stool frequency” value ([1]; Week 8 score 2, Week 0 score 3) was 3, the “Number … of subscore for stool frequency” value ([1]; Week 8 score 3, Week 0 score 0) was 0 and the “Number … of subscore for stool frequency” value ([1]; Week 8 score 3, Week 0 score 1) was 0. For the same compound, the “Number … of subscore for stool frequency” value ([1]; Week 8 score 3, Week 0 score 2) was 1, the “Number … of subscore for stool frequency” value ([1]; Week 8 score 3, Week 0 score 3) was 7 and the “Riley score, Lower quartile” value ([2]; Week 0) was 9.0. For the same compound, the “Riley score, Maximum” value ([2]; Week 0) was 17, the “Riley score, Mean” value ([2]; Week 0) was 11.8±2.8 and 11.8 and the “Riley score, Median” value ([2]; Week 0) was 12.0. The “Riley score, Minimum” value ([2]; Week 0) was 6, the “Riley score, Upper quartile” value ([2]; Week 0) was 14.0 and the “Riley score, Lower quartile” value ([2]; Week 8) was 6.0. The “Riley score, Maximum” value ([2]; Week 8) was 16, the “Riley score, Mean” value ([2]; Week 8) was 8.6±3.4 and 8.6 and the “Riley score, Median” value ([2]; Week 8) was 9.0. For the same compound, the “Riley score, Minimum” value ([2]; Week 8) was 3, the “Riley score, Upper quartile” value ([2]; Week 8) was 11.0 and the “Riley score, difference in mean between Example 1 and Comparative Example 1” value ([2]; Week 8) was −1.96. The “Safety (adverse event analysis)” value ([3]; 960 mg orally 3 times a day for 8 weeks) was “no problem in safety”, the Severe adverse events ([3]; 8-week study period) was “no severe adverse event occurred” and the “Incidence rate of moderate adverse events” value ([3]; 8-week study period (2/51 cases)) was 3.9%.
